Laboratory results taken from patent publication US5447957A, “Anti-inflammatory compounds” (SmithKline Beecham Corp., priority 1994, dated 1995).

System: TPA-induced Mouse Ear Inflammation
Assay: Assay (g): TPA-induced Mouse Ear Inflammation (ear edema and MPO)
Format: in vivo
Details: "this animal model"; topical
Source text: The ability of compounds that inhibit CoA-IT and/or PLA2 to affect in vivo inflammatory responses may be assessed. Inflammatory responses are induced in the mouse ear by the topical application of a pro-inflammatory agent, such as 12-0-tetradecanoylphorbol 13-acetate (assay g). This produces an edematous response, as measured by increases in ear thickness, as well as increased inflammatory cellular infiltrate, as measured by increases in myeloperoxidase activity (as described in the methods). To further validate the mechanism of action inflammation induced by the direct adminstration of arachidonic acid can be used. In this case compounds altering arachidonic acid mobilization or liberation should be with our effect.
Male Balb/c inbred mice were obtained from Charle River Breeding Laboratories (Kingston, N.Y.). Within a single experiment mice (22-25 g) were age-matched. These in vivo experiments typically involved use of 5-6 animals/group.
TPA (12-0-tetradecanoylphorbol 13-acetate) (Sigma Chemical Company) in acetone ([…]) was applied to the inner and outer surfaces of the left ear of BALB/c male mice. The thickness of both ears was then measured with a dial micrometer (Mitutoyo, Japan) at both 2 and 4 hours after treatment, and the data expressed as the change in thickness (10^-3 cm) between treated and untreated ears. […] After measuring the edema, the inflammed left ears were removed and stored at -70° C. until they were assayed for MPO (myeloperoxidase) activity where appropriate.
On the day of the assay, partially thawed ear tissues were minced and then homogenized (10% w/v) with a Tissumizer homogenizer (Tekmar Co.) in 50 mM phosphate buffer (pH 6) containing 0.5% HTAB. The tissue homogenates were taken through three cycles of freeze-thaw, followed by brief sonication (10 sec). The method of Bradley et al. was used with modifications as described. The appearance of a colored product from the MPO-dependent reaction of o-dianisidine (0.167 mg/ml; Sigma) and hydrogen peroxide (0.0005%; Sigma) was measured spectrophotometrically at 460 nm. Supernatant MPO activity was quantified kinetically (change in absorbance measured over 3 min, sampled at 15-sec intervals) using a Beckman DU-7 spectrophotometer and a Kinetics Analysis package (Beckman Instruments, Inc.). One unit of MPO activity is defined as that degrading one micromole of peroxide per minute at 25° C.
Statistical analysis was done using Student's "t" test. The ED50 are values which cause a 50% inhibition of the inflammatory response and are calculated by regression analysis of the dose response data.

Row | SMILES | inhibition in mouse ear inflammation animal model
1 | O=C(Nc1cc(C(F)(F)F)cc(C(F)(F)F)c1)Nc1ccccc1Oc1ccccc1C(=O)O [Example 2, 2-[2-[3-[3,5-Bis (trifluoromethyl)phenyl]ureido]phenoxy]benzoic acid] | positive inhibition
2 | O=C(Nc1cc(C(F)(F)F)cc(C(F)(F)F)c1)Nc1cc(C(F)(F)F)ccc1Oc1ccccc1C(=O)O [Example 7, 2-[2-[3-[3,5-Bis(trifluoromethyl)phenyl]ureido]-4-trifluoromethylphenoxy]benzoic acid] | positive inhibition
